# Assay results from patent US10179790B2 (THOMAS HELLEDAYS STIFTELSE FOR MEDICINSK FORSKNING, priority 2014, dated 2019).
# Target: MTH1 (Homo sapiens, UniProt P36639)
# Experiment: MTH1 enzymatic assay and IC50 value determination (malachite green, 96- and 384-well format)
# Assay type: biochemical
# Settings: hydrolysis of dGTP (100 μM), MTH1 6 nM, pyrophosphatase-coupled malachite green, 15 minutes at 22° C.
# Method: MTH1 Enzymatic Assay and IC50 Value Determination
# MTH1 catalyzes the hydrolysis of dGTP to dGMP and PPi. By coupling the reaction to pyrophosphatase added in excess PPi is converted to Pi that can be detected by using the malachite green assay reagent. Two different formats were used for IC50 determinations in the enzymatic assay, 96- and 384-well format. 96-Well Method:
# Briefly, the compound to be analyzed is diluted in DMSO in a 1:3 dilution series generating 12 different compound concentrations giving a final DMSO concentration of 1% in the assay well. MTH1 diluted in assay buffer (100 mM Tris-acetate, 40 mM NaCl, 10 mM magnesium acetate, 1 mM DTT and 0.005% Tween 20) fortified with E. coli pyrophosphatase (0.2 U/ml) is added to a final concentration of 6 nM. dGTP diluted in assay buffer is added to a final concentration of 100 μM. The reaction mixture is incubated for 15 minutes at 22° C. To 100 μl reaction mixture, 25 μl Malachite green assay regent (0.095% Malachite green in 17% H2SO4, 1.5% Ammonium molybdate, 0.17% Tween 20) is added, followed by incubation with shaking for 15 minutes at 22° C. The absorbance of the assay plate is read at 630 nm using a Hidex Sense Multilabel plate reader. The IC50 value is determined by fitting a dose response curve to the data points using nonlinear regression analysis and the equation Y=Bottom+(Top−Bottom)/(1+10^((Log IC50−X)*HillSlope)), where Y is the read absorbance at 630 nm and X is log [compound].
# The compounds to be tested are nano-dispensed, in 11 concentrations, directly in assay plates, with a final DMSO concentration <1%. The protocol and the reaction mixture are the same as for the 96-well assay, with a total reaction volume of 50 μl/well to which 10 μl of Malachite green reagent is added. All additions to the assay plates are made with multidrop.
row,IC50 [nM],SMILES
1,< 200,"Cc1ccc(-c2cc(NCCc3ccc(S(N)(=O)=O)cc3)nc(N)n2)o1 [Example 4, 4-(2-{[2-amino-6-(5-methylfuran-2-yl)pyrimidin-4-yl]amino}ethyl)benzene-1-sulfonamide]"
2,< 200,"Cc1cccc(-c2cc(NCCNc3ccc(C(N)=O)cn3)nc(N)n2)c1C [Example 5, 6-[(2-{[2-amino-6-(2,3-dimethylphenyl)pyrimidin-4-yl]amino}ethyl)amino]pyridine-3-carboxamide]"
3,< 200,"CSc1ccc(NC(=O)NCCCCNc2cc(-c3cccc(Cl)c3Cl)nc(N)n2)cc1 [Example 6, 3-(4-{[2-amino-6-(2,3-dichlorophenyl)pyrimidin-4-yl]amino}butyl)-1-[4-(methylsulfanyl)phenyl]urea]"
4,< 200,"C[S+]([O-])c1ccc(NC(=O)NCCCCNc2cc(-c3cccc(Cl)c3Cl)nc(N)n2)cc1 (stereo not drawn) [Example 7, 3-(4-{[2-amino-6-(2,3-dichlorophenyl)pyrimidin-4-yl]amino}butyl)-1-(4-methanesulfinylphenyl)urea]"
5,< 200,"Cc1cc(-c2cc(NCCNc3ccc([N+](=O)[O-])cn3)nc(N)n2)c(C)cc1F [Example 8, 6-(4-fluoro-2,5-dimethylphenyl)-4-N-{2-[(5-nitropyridin-2-yl)amino]ethyl}pyrimidine-2,4-diamine]"
6,< 200,"Cc1c(Cl)cccc1-c1cc(NCCc2ccc(C(=O)O)cc2)nc(N)n1 [Example 9, 4-(2-{[2-amino-6-(3-chloro-2-methylphenyl)pyrimidin-4-yl]amino}ethyl)benzoic acid]"
7,< 200,"CC(=O)c1sccc1-c1cc(NCCc2ccc(S(N)(=O)=O)cc2)nc(N)n1 [Example 10, 4-(2-{[6-(2-acetylthiophen-3-yl)-2-aminopyrimidin-4-yl]amino}ethyl)benzene-1-sulfonamide]"
8,< 200,"CC(=O)Nc1ccc(NCCNc2cc(-c3cc(C)c(F)cc3C)nc(N)n2)nc1 [Example 11, N-{6-[(2-{[2-amino-6-(4-fluoro-2,5-dimethylphenyl)pyrimidin-4-yl]amino}ethyl)amino]pyridin-3-yl}acetamide]"
9,< 200,"Cc1cc(-c2cc(NCCNc3ccc(NS(C)(=O)=O)cn3)nc(N)n2)c(C)cc1F [Example 12, N-{6-[(2-{[2-amino-6-(4-fluoro-2,5-dimethylphenyl)pyrimidin-4-yl]amino}ethyl)amino]pyridin-3-yl}methanesulfonamide]"
10,< 200,"Cc1cccc(-c2cc(NCCNc3cncc(S(N)(=O)=O)c3)nc(N)n2)c1C [Example 14, 5-[(2-{[2-amino-6-(2,3-dimethylphenyl)pyrimidin-4-yl]amino}ethyl)amino]pyridine-3-sulfonamide]"
11,< 200,"Cc1c(Cl)cccc1-c1cc(N[C@H]2C[C@@H]2c2ccc(S(N)(=O)=O)cc2)nc(N)n1 [Example 15, 4-[(1R,2S)-2-{[2-amino-6-(3-chloro-2-methylphenyl)pyrimidin-4-yl]amino}cyclopropyl]benzene-1-sulfonamide]"
12,< 200,"CC(C)(C)OC(=O)NCc1ccc(-c2cc(NCCc3ccc(S(C)(=O)=O)cc3)nc(N)n2)s1 [Example 18, tert-butyl N-{[5-(2-amino-6-{[2-(4-methanesulfonylphenyl)ethyl]amino}pyrimidin-4-yl)thiophen-2-yl]methyl}carbamate]"
13,< 200,"Nc1nc(NCCc2ccc(S(N)(=O)=O)cc2)cc(-c2cccc(O)c2)n1 [Example 27, 4-(2-{[2-amino-6-(3-hydroxyphenyl)pyrimidin-4-yl]amino}ethyl)benzene-1-sulfonamide]"
14,< 200,"Nc1nc(NCCc2ccc(S(N)(=O)=O)cc2)cc(-c2cccc(OS(=O)(=O)C(F)(F)F)c2)n1 [Example 33, 3-(2-amino-6-{[2-(4-sulfamoylphenyl)ethyl]amino}pyrimidin-4-yl)phenyl trifluoromethanesulfonate]"
15,< 200,"Cc1cccc(-c2cc(NCCc3ccc(C(=O)O)cc3)nc(N)n2)c1C [Example 34, 4-(2-{[2-amino-6-(2,3-dimethylphenyl)pyrimidin-4-yl]amino}ethyl)benzoic acid]"
16,< 200,"Nc1nc(NCCNc2ccc3c(c2)NC(=O)CO3)cc(-c2cccc(Cl)c2)n1 [Example 37, 6-[(2-{[2-amino-6-(3-chlorophenyl)pyrimidin-4-yl]amino}ethyl)amino]-3,4-dihydro-2H-1,4-benzoxazin-3-one]"
17,< 200,"Cc1cccc(-c2cc(NCCNc3nc(N)nc4[nH]cnc34)nc(N)n2)c1C [Example 45, 4-N-{2-[(2-amino-9H-purin-6-yl)amino]ethyl}-6-(2,3-dimethylphenyl)pyrimidine-2,4-diamine]"

row,IC50 [nM],SMILES
1,< 200,"COC(=O)c1cc(C)nc(NCCNc2cc(-c3cccc(C)c3C)nc(N)n2)n1 [Example 50, methyl 2-[(2-{[2-amino-6-(2,3-dimethylphenyl)pyrimidin-4-yl]amino}ethyl)amino]-6-methylpyrimidine-4-carboxylate]"
2,< 200,"Cc1cccc(-c2cc(NCCNc3ncnc4[nH]cnc34)nc(N)n2)c1C [Example 51, 6-(2,3-dimethylphenyl)-4-N-{2-[(9H-purin-6-yl)amino]ethyl}pyrimidine-2,4-diamine]"
3,< 200,"Cc1cc(Cl)c(Cl)cc1-c1cc(NCCc2ccc(S(N)(=O)=O)cc2)nc(N)n1 [Example 67, 4-(2-{[2-amino-6-(4,5-dichloro-2-methylphenyl)pyrimidin-4-yl]amino}ethyl)benzene-1-sulfonamide]"
4,< 200,"COc1cc(C)c(-c2cc(NCCc3ccc(S(N)(=O)=O)cc3)nc(N)n2)cc1Cl [Example 68, 4-(2-{[2-amino-6-(5-chloro-4-methoxy-2-methylphenyl)pyrimidin-4-yl]amino}ethyl)benzene-1-sulfonamide]"
5,< 200,"Nc1nc(NCCc2ccc(S(N)(=O)=O)cc2)cc(-c2cccc3[nH]ccc23)n1 [Example 69, 4-(2-{[2-amino-6-(1H-indol-4-yl)pyrimidin-4-yl]amino}ethyl)benzene-1-sulfonamide]"
6,< 200,"Cc1ccc(F)cc1-c1cc(NCCc2ccc(S(N)(=O)=O)cc2)nc(N)n1 [Example 71, 4-(2-{[2-amino-6-(5-fluoro-2-methylphenyl)pyrimidin-4-yl]amino}ethyl)benzene-1-sulfonamide]"
7,< 200,"NC(=O)c1ccc(CCNc2cc(-c3cccc(Cl)c3F)nc(N)n2)cc1 [Example 80, 4-(2-{[2-amino-6-(3-chloro-2-fluorophenyl)pyrimidin-4-yl]amino}ethyl)benzamide]"
8,< 200,"Cc1c(Cl)cccc1-c1cc(NCCc2cccc(C(N)=O)c2)nc(N)n1 [Example 88, 3-[2-[[2-amino-6-(3-chloro-2-methyl-phenyl)pyrimidin-4-yl]amino]ethyl]benzamide]"
9,< 200,"CN1C(=O)COc2ccc(NCCNc3cc(-c4cccc(Cl)c4Cl)nc(N)n3)cc21 [Example 94, 6-[2-[[2-amino-6-(2,3-dichlorophenyl)pyrimidin-4-yl]amino]ethylamino]-4-methyl-1,4-benzoxazin-3-one]"
10,< 200,"Nc1nc(NCCc2ccc(S(N)(=O)=O)cc2)cc(-c2ccc(Cl)c(Cl)c2Cl)n1 [Example 98, 4-[2-[[2-amino-6-(2,3,4-trichlorophenyl)pyrimidin-4-yl]amino]ethyl]benzenesulfonamide]"
11,< 200,"COc1c(Cl)ccc(-c2cc(NCCc3ccc(S(N)(=O)=O)cc3)nc(N)n2)c1Cl [Example 99, 4-[2-[[2-amino-6-(2,4-dichloro-3-methoxy-phenyl)pyrimidin-4-yl]amino]ethyl]benzenesulfonamide]"
12,< 200,"Cc1c(Cl)cccc1-c1cc(NCCn2c([N+](=O)[O-])cnc2C)nc(N)n1 [Example 100, 6-(3-chloro-2-methyl-phenyl)-N4-[2-(2-methyl-5-nitro-imidazol-1-yl)ethyl]pyrimidine-2,4-diamine]"
13,< 200,"Nc1nc(NCCc2ccc(S(N)(=O)=O)cc2)cc(-c2csc3ccccc23)n1 [Example 102, 4-[2-[[2-amino-6-(benzothiophen-3-yl)pyrimidin-4-yl]amino]ethyl]benzenesulfonamide]"
14,< 200,"Cc1c(Cl)cccc1-c1cc(NCCc2ccc(C(=N)N)cc2)nc(N)n1 [Example 125, 4-[2-[[2-amino-6-(3-chloro-2-methyl-phenyl)pyrimidin-4-yl]amino]ethyl]benzamidine]"
15,< 200,"CC(C)(C)OC(=O)N1CC=C(c2cc(NCCc3ccc(S(C)(=O)=O)cc3)nc(N)n2)CC1 [Example 129, tert-butyl 4-(2-amino-6-{[2-(4-methanesulfonylphenyl)ethyl]amino}pyrimidin-4-yl)-1,2,3,6-tetrahydropyridine-1-carboxylate]"
16,< 200,"Cc1ccc(S(=O)(=O)N2CC=C(c3cc(NCCc4ccc(S(C)(=O)=O)cc4)nc(N)n3)CC2)cc1 [Example 130, 4-N-[2-(4-methanesulfonylphenyl)ethyl]-6-[1-(4-methylbenzenesulfonyl)-1,2,3,6-tetrahydropyridin-4-yl]pyrimidine-2,4-diamine]"
